Paper PMC8404199, “Structure–Activity Relationships of Triple-Action Platinum(IV) Prodrugs with Albumin-Binding Properties and Immunomodulating Ligands” (Journal of Medicinal Chemistry, 2021)
Like-named read-outs stand apart in the source and are kept apart here.

Experiments:
[1] = system: CT26 colon cancer allografts; assay: Anticancer activity against CT26 allografts in Balb/c mice; type: in vivo; settings: iv, equimolar to 9 mg/kg oxaliplatin; for anticancer activity against CT26 tumors (in words): twice a week for 2 weeks
Protocol: Every day, the animals were monitored for body weight and the enhanced stress level, and the tumor size was measured using a caliper according to the formula length × width^2/2.

[2] = Organ distribution of platinum in SKOV3-bearing SCID mice; settings: 24 h after single iv dose equimolar to 9 mg/kg oxaliplatin
Protocol: For tissue digestion, approx. 25–50 mg of tissue was weighed into perfluoralkoxy tubes, and 2 mL of HNO3 and 100 μL H2O2 (30%, Suprapur, Merck, Darmstadt, Germany) were added. The solutions were placed on a hot plate and heated up for 7 h using a temperature program with a maximum of 200 °C. The liquids were transferred to 15 mL tubes with the remaining solution being removed by washing twice with 4 mL of ultrapure water.
Platinum concentrations were measured using an Agilent 7800 ICP-QMS instrument (Agilent Technologies, Tokyo, Japan) equipped with an Agilent SPS 4 autosampler (Agilent Technologies, Tokyo, Japan) and a MicroMist nebulizer at a sample uptake rate of approx. 0.2 mL/min. […] All of the measured samples were blank corrected (for the cell culture data, wells containing no cells were used). Elemental standard solutions were purchased from Labkings (Hilversum, The Netherlands). The instrument was tuned on a daily basis.
SKOV3 cells (1.5 × 10^6 cells in 50 μL serum-free medium) were injected subcutaneously into the right flank of male SCID mice. […] Then, the animals were sacrificed by cervical dislocation, and tumors and organs were collected for the measurement with ICP–MS. For plasma isolation, blood was collected in ethylenediaminetetraacetic acid (EDTA)-coated tubes and centrifuged for 10 min at 900g at 4 °C. Plasma was transferred to a new tube and centrifuged once more to remove residual red blood cells.

[3] = system: human hepatic cell line (WRL68); assay: MTT cytotoxicity assay in non-malignant WRL68 cells; type: cell-based; settings: 72 h
Protocol: (§1) The cells were seeded at 3500–6000 cells/well in 96-well plates depending on the proliferation rate of the respective cell line and allowed to recover for 24 h. Subsequently, the cells were treated at indicated concentrations for 48 or 72 h. Cells were additionally incubated with 5-fold equimolar concentrations of ascorbic acid to increase the reduction rate of the compounds. Cell viability was measured by the MTT-based vitality assay (EZ4U; Biomedica, Vienna, Austria), following the manufacturer’s recommendations.

[4] = system: VM7 melanoma cancer cells; assay: MTT cytotoxicity assay in VM7 cells; type: cell-based, human; settings: 72 h
Protocol: as §1

[5] = system: human HCT116 colon cancer cells; assay: MTT cytotoxicity assay in HCT116 cells; type: cell-based
Protocol: (§2) Cells were additionally incubated with 5-fold equimolar concentrations of ascorbic acid to increase the reduction rate of the compounds. Cell viability was measured by the MTT-based vitality assay (EZ4U; Biomedica, Vienna, Austria), following the manufacturer’s recommendations.

[6] = system: murine CT26 colon cancer cells; assay: MTT cytotoxicity assay in CT26 cells; type: cell-based
Protocol: as §2

[7] = system: human embryonic kidney cells (HEK293); assay: MTT cytotoxicity assay in non-malignant HEK293 cells; type: cell-based; settings: 72 h
Protocol: as §1

[8] = log D7.4 determination by shake flask method and ICP-MS; type: physicochemical; settings: n-octanol/phosphate buffer pH 7.4, Pt by ICP-MS
Protocol: 50 mM stock solutions of the succinimide complexes in DMF were diluted in phosphate buffer (20 mM, pH 7.4, pre-saturated with n-octanol) to a final concentration of 50 μM drug and 0.1% DMF. The platinum content of these aqueous solutions was measured by ICP–MS (see above). The solutions were mixed 1:1 with n-octanol and shaken on a 360° rotatable rack for 3 h. The solutions were centrifuged for 5 min (860g, RT), the aqueous layers were carefully removed, and their Pt content was measured by ICP–MS. Experiments were performed and measured in duplicates, and averages were used for further calculations. log D7.4 values were calculated by the following equation [drawing 1]

[9] = system: human SKOV3 cancer cells; assay: MTT cytotoxicity assay in SKOV3 cells; type: cell-based; settings: 72 h incubation
Protocol: as §1

[10] = system: SKOV3 cell lysates; assay: Reduction and 1-MDT release in SKOV3 lysates; type: in vitro ADME, human; settings: 100 μM, 37 °C
Protocol: SKOV3 cells were grown in four T225 […] cell culture flasks to reach a high cell number. On the day of cell lysate isolation, cells were washed with PBS, scraped from the surface, and centrifuged. Each cell pellet was lysed in ∼160 μL lysis buffer (15 mM NaCl 0.5% Triton X, ultrapure) and incubated on ice for 1 h. The samples were then centrifuged for 15 min at 14,000 rpm (4 °C), and the cleared lysate was pooled and kept at −80 °C until analysis. Cell lysates were treated with 2 mM stock solutions of respective complexes in 4% DMF and phosphate buffer (100 mM, pH 7.4) to obtain a final compound concentration of 100 μM and incubated at 37 °C. After 0, 4, 24, and 72 h, three volume equivalents of cold MeOH were added to sample aliquots. Samples were stored at 4 °C for 10 min and centrifuged (15,080g, 4 °C, 10 min). LC–MS analysis of the supernatant was performed on an Agilent 1260 Infinity system using a Waters Atlantis T3 column (150 mm × 4.6 mm) and absorption detection at 230 nm, coupled to a Bruker amaZon SL ESI-IT mass spectrometer. Milli-Q water, containing 0.1% formic acid, and acetonitrile, containing 0.1% formic acid, were used as eluents. A gradient of 1–99% acetonitrile in 20 min was used.

[11] = UHPLC reduction experiments with L-ascorbic acid; type: physicochemical; settings: 1 mM complex, 10-fold excess AA, phosphate buffer pH 7.4, 1% DMF, 20 °C
Protocol: The platinum(IV)–succinimide complexes were dissolved in 2% DMF in phosphate buffer (500 mM, pH 7.4) to a final concentration of 2 mM. The solutions were then mixed 1:1 with a 20 mM stock of L-ascorbic acid in phosphate buffer (500 mM, pH 7.4) to obtain final concentrations of 1 mM complex, 10 mM L-ascorbic acid, and 1% DMF. The samples were incubated at 20 °C and measured on a Dionex UltiMate 3000 RS UPLC system with a Waters Acquity UPLC BEH C18 column (3 × 50 mm, pore size 1.7 μm) and absorption detection at 220 nm. Data points were taken at t = 0 and every 30 min for 6 h.

[12] = molecular target: T1, albumin (Bos taurus, UniProt P02769); assay: SEC-ICP-MS albumin binding and serum stability in fetal calf serum; type: in vitro ADME; settings: FCS + 150 mM phosphate buffer pH 7.4, 37 °C
T1 construct: FCS was purchased from Sigma-Aldrich and buffered with 150 mM phosphate buffer (pH 7.4); tissue Sigma-Aldrich; host or cells: fetal calf serum
T1 sequence (P02769 25-607): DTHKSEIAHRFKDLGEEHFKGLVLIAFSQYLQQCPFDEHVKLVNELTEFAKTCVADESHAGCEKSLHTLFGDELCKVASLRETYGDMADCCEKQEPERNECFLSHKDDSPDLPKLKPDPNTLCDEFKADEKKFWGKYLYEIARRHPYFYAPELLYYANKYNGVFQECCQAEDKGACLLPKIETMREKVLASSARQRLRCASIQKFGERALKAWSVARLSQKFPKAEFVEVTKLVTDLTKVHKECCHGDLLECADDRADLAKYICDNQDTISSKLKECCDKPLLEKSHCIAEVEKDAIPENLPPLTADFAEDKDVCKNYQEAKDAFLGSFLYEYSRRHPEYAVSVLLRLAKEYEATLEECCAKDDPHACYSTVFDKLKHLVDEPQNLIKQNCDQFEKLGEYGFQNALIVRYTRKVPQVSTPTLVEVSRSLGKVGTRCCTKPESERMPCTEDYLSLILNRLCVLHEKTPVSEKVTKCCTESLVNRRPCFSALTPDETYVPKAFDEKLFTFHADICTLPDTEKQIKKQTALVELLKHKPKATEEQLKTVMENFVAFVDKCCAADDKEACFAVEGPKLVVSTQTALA
Protocol: FCS was purchased from Sigma-Aldrich and buffered with 150 mM phosphate buffer (pH 7.4) to guarantee a stable pH. The maleimide-bearing platinum(IV) complexes were dissolved in 10% DMF in 150 mM phosphate buffer (pH 7.4) to 1 mM and diluted 1:10 in serum to obtain a final concentration of 100 μM. The samples were then incubated in the autosampler at 37 °C for 24 h and analyzed every 1 h. Between each sample, a pure water blank was measured. For SEC–ICP–MS measurements, an Agilent 1260 Infinity system coupled to an Agilent 7800 ICP–MS equipped with a dynamic reaction cell was used. Oxygen (purity 5.5, Messer Austria GmbH, Gumpoldskirchen, Austria) was used as reaction gas.

[13] = system: SKOV3 cancer cells; assay: Long-term cytotoxicity assay (crystal violet) in SKOV3 cells; type: cell-based, human; settings: 168 h, crystal violet stain, mean ± SD
Protocol: SKOV3 cells were seeded in duplicates at 5000 cells/well in 24-well plates and allowed to recover for 24 h. Subsequently, the cells were treated at the indicated concentrations for 168 h. Cells were fixed with ice-cold methanol (20 min at 4 °C), washed with PBS, and stained with crystal violet. Subsequently, colony formation was inspected, and the fluorescence signal was detected using Typhoon Trio imager (GE Healthcare, Little Chalfont, UK) at 610/30 nm BP and analyzed by ImageJ software.

[14] = 48 h incubation, with 5 equiv AA, read-out: HCT116 IC50 values +AA, mean ± SD
[15] = 48 h incubation, without AA, read-out: HCT116 IC50 values, mean ± SD
[16] = 72 h incubation, with 5 eq. AA, read-out: HCT116 IC50 values + 5 eq. AA, mean
[17] = 72 h incubation, without AA, read-out: HCT116 IC50 values, mean
[18] = 48 h incubation, with 5 equiv AA, read-out: CT26 IC50 values +AA, mean ± SD
[19] = 48 h incubation, without AA, read-out: CT26 IC50 values, mean ± SD
[20] = 72 h incubation, with 5 eq. AA, read-out: CT26 IC50 values + 5 eq. AA, mean
[21] = 72 h incubation, without AA, read-out: CT26 IC50 values, mean
[22] = with 5 eq. AA, read-out: SKOV3 IC50 values + 5 eq. AA, mean
[23] = without AA, read-out: SKOV3 IC50 values, mean

## Cn1cc(C[C@@H](NC(=O)[O][Pt]2([O]C(=O)NCCCCCN3C(=O)C=CC3=O)[O]C(=O)C(=O)[O]2)C(=O)O)c2ccccc21.N[C@@H]1CCCC[C@H]1N [MalCa/IdoCa, (OC-6-24)-[(R)-(1-Carboxy-2-(1-methyl-1H-indol-3-yl)ethyl)carbamato][(1R,2R)-1,2-cyclohexanediamino][5-(2,5-dioxo-2,5-dihydro-1H-pyrrol-1-yl)pentylcarbamato]oxalatoplatinum(IV)]
[1]
  activity directly compared to oxaliplatin: tumor growth and overall survival: superior to oxaliplatin
  anticancer activity against CT26 tumors (in words): significant anticancer activity
[2]
  platinum levels in blood plasma: 6.4 mg/kg
[2]; ratio of mean platinum levels
  Platinum ratio tumor:kidney: 0.5
  Platinum ratio tumor:liver: 0.5

## Cn1cc(CC([NH3+])C(=O)[O][Pt]23([O]C(=O)CCCCCN4C(=O)C=CC4=O)([NH]C4CCCCC4[NH]2)[O]C(=O)C(=O)[O]3)c2ccccc21.O=C([O-])C(F)(F)F [MalEs/IdoEs, (OC-6-44)-[(R)-2-Ammonio-3-(1-methyl-1H-indol-3-yl)propanoato][(1R,2R)-1,2-yclohexanediamino][6-(2,5-dioxo-2,5-dihydro-1H-pyrrol-1-yl)hexanoato]oxalatoplatinum(IV) Trifluoroacetate]
[1]
  anticancer activity against CT26 tumors (in words): inactive
[2]
  platinum levels in blood plasma: 3.7 mg/kg

## CC(=O)[O][Pt]1([O]C(C)=O)[O]C(=O)C(=O)[O]1.N[C@@H]1CCCC[C@H]1N [OAc/OAc, reference compound]
[3]
  IC50: 33.6 µM
[4]
  IC50: 43.5 µM
[5]; [14]
  IC50: 20.1 ± 1.57 µM
[5]; [15]
  IC50: 26.6 ± 2.41 µM
[5]; [16]
  IC50: 11.5 µM
[5]; [17]
  IC50: 14.3 µM
[6]; [18]
  IC50: 22.6 ± 0.16 µM
[6]; [19]
  IC50: 25.7 ± 1.4 µM
[6]; [20]
  IC50: 33.5 µM
[6]; [21]
  IC50: 42.3 µM
[7]
  IC50: 12.2 µM

## Cn1cc(CC(NC(=O)[O][Pt]23([O]C(=O)NCCCCCN4C(=O)CCC4=O)([NH]C4CCCCC4[NH]2)[O]C(=O)C(=O)[O]3)C(=O)O)c2ccccc21 [SucCa/IdoCa, (OC-6-24)-[(R)-(1-Carboxy-2-(1-methyl-1H-indol-3-yl)ethyl)carbamato][(1R,2R)-1,2-cyclohexanediamino][(5-(2,5-dioxopyrrolidin-1-yl)pentyl)carbamato]oxalatoplatinum(IV)]
[3]
  IC50: > 100 µM
[4]
  IC50: > 100 µM
[8]
  log D7.4: –1.49
[9]; [22]
  IC50: > 100 µM
[9]; [23]
  IC50: > 100 µM
[5]; 48 h
  ratio (IC50 without AA / with AA), HCT116: ≥2.3
[5]; [14]
  IC50: 43.3 ± 2.1 µM
[5]; [15]
  IC50: > 100 µM
[5]; 72 h
  ratio (IC50 without AA / with AA), HCT116: ≥ 4
[5]; [16]
  IC50: 24.7 µM
[10]
  still present as platinum(IV) species after 72 h: ~50%
[6]; 48 h
  ratio (IC50 without AA / with AA), CT26: ≥2.6
[6]; [18]
  IC50: 38.8 ± 3.84 µM
[6]; [19]
  IC50: > 100 µM
[6]; 72 h
  ratio (IC50 without AA / with AA), CT26: 1.89
[6]; [20]
  IC50: 43.6 µM
[6]; [21]
  IC50: 82.5 µM
[11]
  complex intact after 6 h: 90%
[12]
  albumin binding in serum (in words): significant binding to albumin (tR ~4 min) could be observed for any of the compounds
[13]
  IC50: 54.6 ± 14.1 µM
[7]
  IC50: 81.2 µM

## CC(=O)[O][Pt]1([O]C(=O)NCCCCCN2C(=O)CCC2=O)[O]C(=O)C(=O)[O]1.N[C@@H]1CCCC[C@H]1N [SucCa/OAc, (OC-6-34)-Acetato[(1R,2R)-1,2-cyclohexanediamine]oxalato[(5-(2,5-dioxopyrrolidin-1-yl)pentyl)carbamato]platinum(IV)]
[3]
  IC50: > 100 µM
[4]
  IC50: > 100 µM
[9]; [22]
  IC50: > 100 µM
[9]; [23]
  IC50: > 100 µM
[5]; 48 h
  ratio (IC50 without AA / with AA), HCT116: ≥2.9
[5]; [14]
  IC50: 34 ± 1.58 µM
[5]; [15]
  IC50: > 100 µM
[5]; 72 h
  ratio (IC50 without AA / with AA), HCT116: 1.93
[5]; [16]
  IC50: 21.8 µM
[5]; [17]
  IC50: 42 µM
[6]; 48 h
  ratio (IC50 without AA / with AA), CT26: 2.67
[6]; [18]
  IC50: 28.2 ± 1.81 µM
[6]; [19]
  IC50: 75.21 ± 0.11 µM
[6]; 72 h
  ratio (IC50 without AA / with AA), CT26: 1.37
[6]; [20]
  IC50: 40.4 µM
[6]; [21]
  IC50: 55.2 µM
[13]
  IC50: 29.7 ± 0.3 µM
[7]
  IC50: 50.8 µM
